Patent US11738008B2, “N-methyl-D-aspartic acid receptor modulators” (Emory University, priority 2018, dated 2023)
Read-outs that look alike come from different tables or passages of the source.

Experiments:
[1] = biological target: rat GluN1/GluN2C (Rattus norvegicus, UniProt P35439+Q00961); test: Two-electrode voltage clamp recordings in Xenopus laevis oocytes, potentiation of GluN1/GluN2C; assay type: cell-based
Description: (§1) Xenopus laevis oocytes were purchased unfertilized from Ecocyte (Austin, Tex.). The oocytes were injected with mRNA to express recombinant rat GluN1/GluN2A, GluN1/GluN2B, GluN1/GluN2C, and GluN1/GluN2D and two-electrode voltage clamp (TEVC) recordings were performed. Drs. S. Heinemann (Salk Institute), S. Nakanishi (Kyoto University), and P. Seeburg (University of Heidelberg) provided the cDNAs for rat GluN1-1a (GenBank accession numbers U11418 and U08261, referred to as GluN1 henceforth), GluN2A (D13211), GluN2B (U11419), GluN2C (M91563), and GluN2D (D13213). GluN2C and GluN2D were altered according to literature precedent. […] To prevent the current increase typically seen during experiments with oocytes expressing GluN1/GluN2A receptors, the oocytes were either injected with 20 nL of 100 mM K-BAPTA (potassium 1,2-bis(o-aminophenoxy)ethane-N,N,N,N-tetraacetic acid) or pretreated with 50 μM BAPTA-AM (1,2-bis(o-aminophenoxy)ethane-N,N,N,N-tetraacetic acid tetraacetoxymethyl ester) for 10 minutes.

[2] = biological target: rat GluN1/GluN2C (Rattus norvegicus, UniProt Q00961); test: as above; assay type: cell-based
Chain of rat GluN1/GluN2C (Rattus norvegicus, UniProt Q00961) (Q00961 20-1237, other chains not shown): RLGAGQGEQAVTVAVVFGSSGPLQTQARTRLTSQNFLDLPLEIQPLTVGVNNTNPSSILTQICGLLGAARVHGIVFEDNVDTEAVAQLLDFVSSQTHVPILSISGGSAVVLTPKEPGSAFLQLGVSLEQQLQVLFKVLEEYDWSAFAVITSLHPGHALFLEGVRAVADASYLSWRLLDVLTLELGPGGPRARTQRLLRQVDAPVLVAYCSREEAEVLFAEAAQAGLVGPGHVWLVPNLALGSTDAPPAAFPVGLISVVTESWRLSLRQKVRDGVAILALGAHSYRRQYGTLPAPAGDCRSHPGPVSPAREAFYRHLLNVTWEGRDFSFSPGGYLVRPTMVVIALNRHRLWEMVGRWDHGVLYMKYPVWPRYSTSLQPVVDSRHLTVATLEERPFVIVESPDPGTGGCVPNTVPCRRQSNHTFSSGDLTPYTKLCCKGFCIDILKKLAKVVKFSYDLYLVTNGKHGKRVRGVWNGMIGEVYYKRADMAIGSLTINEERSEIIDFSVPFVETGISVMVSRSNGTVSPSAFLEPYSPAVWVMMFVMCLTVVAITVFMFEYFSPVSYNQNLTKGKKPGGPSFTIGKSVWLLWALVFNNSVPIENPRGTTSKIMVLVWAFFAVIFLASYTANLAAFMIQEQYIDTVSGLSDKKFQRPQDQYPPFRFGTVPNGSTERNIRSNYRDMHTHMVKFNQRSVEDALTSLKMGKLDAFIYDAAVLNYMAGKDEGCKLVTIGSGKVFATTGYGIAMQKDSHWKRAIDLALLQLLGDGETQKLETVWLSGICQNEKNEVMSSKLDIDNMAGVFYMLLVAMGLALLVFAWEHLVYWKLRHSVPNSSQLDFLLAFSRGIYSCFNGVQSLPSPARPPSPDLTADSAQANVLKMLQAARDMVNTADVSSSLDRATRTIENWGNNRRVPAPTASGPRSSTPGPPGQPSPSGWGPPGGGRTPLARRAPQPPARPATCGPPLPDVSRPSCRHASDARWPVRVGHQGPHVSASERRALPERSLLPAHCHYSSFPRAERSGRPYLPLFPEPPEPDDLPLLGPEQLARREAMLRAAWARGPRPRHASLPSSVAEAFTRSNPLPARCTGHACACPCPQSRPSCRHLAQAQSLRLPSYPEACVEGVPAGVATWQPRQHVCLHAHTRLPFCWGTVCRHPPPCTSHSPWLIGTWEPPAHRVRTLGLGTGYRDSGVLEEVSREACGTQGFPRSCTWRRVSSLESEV
Description: as §1

[3] = biological target: T1, 5-HT1A (Homo sapiens, UniProt P08908); test: NIMH PDSP radioligand binding, 5-HT1A; details: read-out: Radioligand binding in 10 μM compound (% control)
T1 construct: NIMH PDSP (assay provider)
T1 sequence (P08908 whole entry, species assumed): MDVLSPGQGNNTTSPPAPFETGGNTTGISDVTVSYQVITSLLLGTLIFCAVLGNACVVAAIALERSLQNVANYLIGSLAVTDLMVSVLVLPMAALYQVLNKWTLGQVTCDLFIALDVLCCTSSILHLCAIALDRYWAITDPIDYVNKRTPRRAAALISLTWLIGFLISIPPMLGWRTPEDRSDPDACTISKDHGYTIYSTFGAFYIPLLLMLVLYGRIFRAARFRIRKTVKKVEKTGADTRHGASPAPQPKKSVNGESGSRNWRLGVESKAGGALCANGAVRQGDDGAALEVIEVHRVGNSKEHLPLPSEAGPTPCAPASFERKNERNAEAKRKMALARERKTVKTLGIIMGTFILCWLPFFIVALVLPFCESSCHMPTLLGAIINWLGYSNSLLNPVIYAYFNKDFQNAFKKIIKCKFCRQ
Description: (§2) The NIMH PDSP is Directed by Bryan L. Roth at the University of North Carolina at Chapel Hill and Project Officer Jamie Driscoll at NIMH, Bethesda Md., USA. Radioligand binding was measured in the presence of 10 μM 1180-420 and 1180-447. […] For experimental details please refer to the PDSP web site https://pdsp.unc.edu/ims/investigator/web/. Both 1180-420 and 1180-447 were also tested at AMPA, nicotinic acetylcholine, serotonin, GABA, and glycine ion channels using a two-electrode voltage clamp assay.
(§3) Receptor binding profiles of compound 1180-447 were generously provided by the National Institute of Mental Health's Psychoactive Drug Screening Program, Contract # HHSN-271-2013-00017-C(NIMH PDSP). The NIMH PDSP is directed by Bryan L. Roth at the University of North Carolina at Chapel Hill and Project Officer Jamie Driscoll at NIMH, Bethesda Md., USA. Radioligand binding was measured in the presence of 10 μM 1180-447. […] For experimental details please refer to the PDSP web site https://pdsp.unc.edu/ims/investigator/web/.
(§4) The NIMH PDSP is Directed by Bryan L. Roth at the University of North Carolina at Chapel Hill and Project Officer Jamie Driscoll at NIMH, Bethesda Md., USA. Radioligand binding was measured in the presence of 10 μM 1180-420. […] For experimental details please refer to the PDSP web site https://pdsp.unc.edu/ims/investigator/web/.

[4] = biological target: T2, D4 (Homo sapiens, UniProt P21917); test: NIMH PDSP radioligand binding, D4; details: read-out: Radioligand binding in 10 μM compound (% control)
T2 construct: NIMH PDSP (assay provider)
T2 sequence (P21917 whole entry): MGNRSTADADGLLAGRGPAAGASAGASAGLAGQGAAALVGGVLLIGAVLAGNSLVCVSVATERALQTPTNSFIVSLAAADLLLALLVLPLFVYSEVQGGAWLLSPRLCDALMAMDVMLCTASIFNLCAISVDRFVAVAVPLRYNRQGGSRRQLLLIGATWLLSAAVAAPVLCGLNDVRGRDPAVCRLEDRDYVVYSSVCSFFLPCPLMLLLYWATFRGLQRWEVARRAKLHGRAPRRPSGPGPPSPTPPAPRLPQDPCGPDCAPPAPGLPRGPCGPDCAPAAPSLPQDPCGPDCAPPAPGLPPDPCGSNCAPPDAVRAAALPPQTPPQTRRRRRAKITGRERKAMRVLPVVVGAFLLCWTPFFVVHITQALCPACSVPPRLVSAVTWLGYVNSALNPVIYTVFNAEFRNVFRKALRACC
Description: as §2, §3, §4

[5] = biological target: β3 (Homo sapiens, UniProt P13945); test: NIMH PDSP radioligand binding, β3; details: read-out: Radioligand binding in 10 μM compound (% control)
Chain of β3 (P13945 whole entry): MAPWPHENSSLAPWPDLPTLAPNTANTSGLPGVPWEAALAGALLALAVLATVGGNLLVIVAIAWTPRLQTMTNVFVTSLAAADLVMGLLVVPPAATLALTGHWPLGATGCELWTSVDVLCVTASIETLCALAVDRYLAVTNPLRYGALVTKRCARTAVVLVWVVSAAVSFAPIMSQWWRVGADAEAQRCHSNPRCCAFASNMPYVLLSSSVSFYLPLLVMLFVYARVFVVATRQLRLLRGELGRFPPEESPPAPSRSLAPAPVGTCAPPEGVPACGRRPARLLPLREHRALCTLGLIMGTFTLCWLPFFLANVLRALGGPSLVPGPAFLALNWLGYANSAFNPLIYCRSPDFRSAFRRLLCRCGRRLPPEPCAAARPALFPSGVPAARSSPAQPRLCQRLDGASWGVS
Description: as §2, §3, §4

[6] = biological target: α2A (Homo sapiens, UniProt P08913); test: NIMH PDSP radioligand binding, α2A; details: read-out: Radioligand binding in 10 μM compound (% control)
Chain of α2A (P08913 whole entry): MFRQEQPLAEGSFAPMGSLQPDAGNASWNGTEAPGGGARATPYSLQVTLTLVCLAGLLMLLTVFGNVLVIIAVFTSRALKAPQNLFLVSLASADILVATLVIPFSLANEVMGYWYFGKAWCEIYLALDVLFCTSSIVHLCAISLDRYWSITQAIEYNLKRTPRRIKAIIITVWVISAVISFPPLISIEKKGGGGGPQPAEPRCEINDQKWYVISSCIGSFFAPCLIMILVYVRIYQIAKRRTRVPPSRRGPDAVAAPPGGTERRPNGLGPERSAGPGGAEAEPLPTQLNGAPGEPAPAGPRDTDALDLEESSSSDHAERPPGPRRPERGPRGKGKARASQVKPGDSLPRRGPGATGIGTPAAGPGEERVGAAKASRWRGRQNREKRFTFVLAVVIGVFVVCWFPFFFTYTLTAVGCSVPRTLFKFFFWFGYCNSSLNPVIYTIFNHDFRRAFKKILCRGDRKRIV
Description: as §2, §3, §4

[7] = biological target: M5 (Homo sapiens, UniProt P08912); test: NIMH PDSP radioligand binding, M5; details: read-out: Radioligand binding in 10 μM compound (% control)
Chain of M5 (P08912 whole entry): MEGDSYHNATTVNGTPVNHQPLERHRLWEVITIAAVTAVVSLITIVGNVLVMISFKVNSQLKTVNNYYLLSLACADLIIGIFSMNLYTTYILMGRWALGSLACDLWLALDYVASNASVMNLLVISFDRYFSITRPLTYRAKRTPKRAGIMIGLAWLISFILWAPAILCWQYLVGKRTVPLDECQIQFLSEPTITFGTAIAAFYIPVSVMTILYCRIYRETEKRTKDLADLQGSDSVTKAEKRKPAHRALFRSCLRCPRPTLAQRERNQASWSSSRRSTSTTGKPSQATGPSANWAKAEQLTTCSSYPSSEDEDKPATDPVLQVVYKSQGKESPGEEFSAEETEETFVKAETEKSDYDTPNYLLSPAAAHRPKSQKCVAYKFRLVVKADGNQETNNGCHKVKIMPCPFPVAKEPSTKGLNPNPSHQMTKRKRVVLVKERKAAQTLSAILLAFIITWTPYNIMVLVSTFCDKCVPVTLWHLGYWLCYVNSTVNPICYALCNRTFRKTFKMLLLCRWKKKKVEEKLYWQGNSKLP
Description: as §2, §3, §4

[8] = biological target: α2B (Homo sapiens, UniProt P18089); test: NIMH PDSP radioligand binding, α2B; details: read-out: Radioligand binding in 10 μM compound (% control)
Description: as §2, §3, §4

[9] = biological target: H2 (Homo sapiens, UniProt P25021); test: NIMH PDSP radioligand binding, H2; details: read-out: Radioligand binding in 10 μM compound (% control)
Chain of H2 (P25021 whole entry): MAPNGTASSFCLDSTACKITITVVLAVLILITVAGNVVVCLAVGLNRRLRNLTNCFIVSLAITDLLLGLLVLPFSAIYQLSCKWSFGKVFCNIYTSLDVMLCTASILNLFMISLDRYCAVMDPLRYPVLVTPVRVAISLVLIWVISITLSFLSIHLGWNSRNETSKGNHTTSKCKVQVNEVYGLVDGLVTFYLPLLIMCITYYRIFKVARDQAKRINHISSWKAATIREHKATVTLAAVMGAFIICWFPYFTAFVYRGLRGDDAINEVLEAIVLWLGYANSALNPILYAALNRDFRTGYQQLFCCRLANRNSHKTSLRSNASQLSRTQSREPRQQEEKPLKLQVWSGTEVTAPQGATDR
Description: as §2, §3, §4

[10] = biological target: serotonin transporter (Homo sapiens, UniProt P31645); test: NIMH PDSP radioligand binding, serotonin transporter; details: read-out: Radioligand binding in 10 μM compound (% control)
Description: as §2, §3, §4

[11] = biological target: T3, 5-HT2C (Homo sapiens, UniProt P28335); test: NIMH PDSP radioligand binding, 5-HT2C; details: for remaining activity at 10 µM: read-out: Radioligand binding in 10 μM compound (% control)
T3 construct: NIMH PDSP (assay provider)
T3 sequence (P28335 33-458): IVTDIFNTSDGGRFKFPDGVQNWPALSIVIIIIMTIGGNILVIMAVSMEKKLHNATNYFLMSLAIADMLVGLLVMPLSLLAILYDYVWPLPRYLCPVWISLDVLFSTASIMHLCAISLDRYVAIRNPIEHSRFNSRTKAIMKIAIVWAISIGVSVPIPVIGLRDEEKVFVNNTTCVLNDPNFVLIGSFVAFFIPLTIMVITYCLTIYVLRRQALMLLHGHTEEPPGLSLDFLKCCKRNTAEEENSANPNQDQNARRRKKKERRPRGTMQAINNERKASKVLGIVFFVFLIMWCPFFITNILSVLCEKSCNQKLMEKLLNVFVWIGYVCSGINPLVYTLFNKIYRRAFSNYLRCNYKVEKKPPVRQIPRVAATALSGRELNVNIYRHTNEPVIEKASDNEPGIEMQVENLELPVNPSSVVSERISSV
Description: as §2, §3, §4

[12] = biological target: T4, D3 (Homo sapiens, UniProt P35462); test: NIMH PDSP radioligand binding, D3; details: read-out: Radioligand binding in 10 μM compound (% control)
T4 construct: NIMH PDSP (assay provider)
T4 sequence (P35462 whole entry): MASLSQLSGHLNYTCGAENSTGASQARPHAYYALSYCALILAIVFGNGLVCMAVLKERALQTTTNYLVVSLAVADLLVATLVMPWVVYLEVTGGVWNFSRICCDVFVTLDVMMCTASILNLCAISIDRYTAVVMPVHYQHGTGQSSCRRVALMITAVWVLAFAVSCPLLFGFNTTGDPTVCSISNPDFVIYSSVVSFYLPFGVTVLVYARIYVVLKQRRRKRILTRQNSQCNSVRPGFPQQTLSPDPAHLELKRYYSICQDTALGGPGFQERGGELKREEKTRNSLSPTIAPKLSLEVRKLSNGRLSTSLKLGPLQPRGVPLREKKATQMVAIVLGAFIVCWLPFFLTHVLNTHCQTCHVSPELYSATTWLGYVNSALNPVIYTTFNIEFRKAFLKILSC
Description: as §2, §3, §4

[13] = biological target: H3 (Homo sapiens, UniProt Q9Y5N1); test: NIMH PDSP radioligand binding, H3; details: read-out: Radioligand binding in 10 μM compound (% control)
Description: as §2, §3, §4

[14] = biological target: dopamine transporter (Homo sapiens, UniProt Q01959); test: NIMH PDSP radioligand binding, dopamine transporter; details: read-out: Radioligand binding in 10 μM compound (% control)
Chain of dopamine transporter (Q01959 whole entry): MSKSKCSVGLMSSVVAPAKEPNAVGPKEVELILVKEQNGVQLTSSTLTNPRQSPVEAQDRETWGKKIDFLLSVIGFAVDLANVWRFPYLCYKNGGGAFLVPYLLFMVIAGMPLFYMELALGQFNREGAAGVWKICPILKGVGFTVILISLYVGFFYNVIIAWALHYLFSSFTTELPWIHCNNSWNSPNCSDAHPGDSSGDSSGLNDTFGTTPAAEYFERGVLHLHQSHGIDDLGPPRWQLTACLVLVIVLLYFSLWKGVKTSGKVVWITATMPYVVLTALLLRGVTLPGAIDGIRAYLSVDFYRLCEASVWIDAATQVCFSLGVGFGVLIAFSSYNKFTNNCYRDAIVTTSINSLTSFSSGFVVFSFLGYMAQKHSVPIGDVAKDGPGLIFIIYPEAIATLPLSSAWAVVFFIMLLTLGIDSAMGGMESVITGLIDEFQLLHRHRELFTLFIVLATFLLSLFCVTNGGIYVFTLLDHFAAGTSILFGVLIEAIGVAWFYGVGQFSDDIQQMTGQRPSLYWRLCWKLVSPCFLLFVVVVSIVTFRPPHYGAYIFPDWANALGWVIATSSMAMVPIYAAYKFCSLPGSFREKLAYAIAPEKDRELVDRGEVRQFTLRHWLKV
Description: as §2, §3, §4

[15] = In vivo pharmacokinetics, plasma and brain, IP 10 mg/kg; design: species or system C57BL/6 mice; details: mouse; for AUC % Extrapolation / AUCINF / AUCLAST / t½terminal / Tmax / Cmax / AUC(0-inf) / AUC(0-t): mean; for max brain concentration / half-life: IP 10 mg/kg; for Kp / half-life / Tmax / Cmax / AUC(0-inf) / AUC(0-t): male; for Kp: C57BL/6, brain and plasma, IP 10 mg/kg fed, read-out: Ratio_AUCLAST (Brain/plasma); for half-life: C57BL/6, plasma, read-out: half-lives in plasma; for Tmax / Cmax / AUC(0-inf) / AUC(0-t): C57BL/6
Description: In vivo analysis of 1180-420 and 1180-447 for pharmacokinetic properties: In vivo analysis of 1180-420 and 1180-447 for pharmacokinetic properties was performed by Pharmaron (Irvine, Calif.). […] The mouse is placed head down at a 45-degree angle to facilitate blood removal. After perfusion, the brain ventricle is opened, and the brain is removed. […] The mixtures were then vortexed for 30 seconds and subsequently centrifuged (˜4000 rpm) for 15 minutes.

[16] = Brain IP 10 mg/kg fed, read-out: Cmax
[17] = Brain IP 10 mg/kg fed, read-out: Cmax (ng/g)
[18] = Plasma IP 10 mg/kg fed, read-out: Cmax
[19] = Plasma IP 10 mg/kg fed, read-out: Cmax (ng/mL)

Chain of rat GluN1/GluN2C (Rattus norvegicus, UniProt P35439+Q00961) (Q00961 20-1237, other chains not shown): as the sequence (Q00961 20-1237, other chains not shown) above

| SMILES | remaining activity at 10 µM [3] [%] | remaining activity at 10 µM [4] [%] | remaining activity at 10 µM [5] [%] | remaining activity at 10 µM [6] [%] | remaining activity at 10 µM [7] [%] | remaining activity at 10 µM [8] [%] | remaining activity at 10 µM [9] [%] | remaining activity at 10 µM [10] [%] | remaining activity at 10 µM [11] [%] | remaining activity at 10 µM [12] [%] | remaining activity at 10 µM [13] [%] | remaining activity at 10 µM [14] [%] | AUC % Extrapolation ([15]; Brain IP 10 mg/kg fed) [%] | AUCINF ([15]; Brain IP 10 mg/kg fed) [ng·h/g] | AUCLAST ([15]; Brain IP 10 mg/kg fed) [ng·h/g] | t½terminal ([15]; Brain IP 10 mg/kg fed) [min] | max brain concentration [15] [µM] | AUC % Extrapolation ([15]; Plasma IP 10 mg/kg fed) [%] | t½terminal ([15]; Plasma IP 10 mg/kg fed) [min] | Kp [15] | other results |
| --- | --- | --- | --- | --- | --- | --- | --- | --- | --- | --- | --- | --- | --- | --- | --- | --- | --- | --- | --- | --- | --- |
| COc1ccc(OCC2c3cccn3CC(=O)N2Cc2cccc(C(F)(F)F)c2)cc1 (racemic) [1180-447, 1-((4-Methoxyphenoxy)methyl)-2-(3-(trifluoromethyl)benzyl)-1,2-dihydropyrrolo[1,2-a]pyrazin-3(4H)-one] | 101 | 101 | 73 | 98 | 108 | 94 | 103 | 91 | 32 | 93 | 79 | 76 | 9 | 1836 | 1670 | 72 | 4 | 6 | 60 | 2 | EC50 ([1]; read-out: GluN2C pEC50 [95% CI] (converted)): 1260 nM; GluN2C (max) (%) [2]: (298) %; Ki ([11]; read-out: pKi values from non-linear regression of radioligand competition binding isotherms (converted)): > 10000 nM; half-life [15]: > 60 min; Tmax ([15]; Brain IP 10 mg/kg fed): 30 min; Cmax [15, 16]: 3900 nM; Cmax [15, 17]: 1670 ng/g; AUC(0-inf) ([15]; Plasma IP 10 mg/kg fed): 760 ng·h/mL; AUC(0-t) ([15]; Plasma IP 10 mg/kg fed): 715 ng·h/mL; Tmax ([15]; Plasma IP 10 mg/kg fed): 18 min; Cmax [15, 18]: 1500 nM; Cmax [15, 19]: 635 ng/mL |
| COc1ccc(OCC2c3cccn3CCN2C(=O)c2cccc(Cl)c2)cc1 (stereo not drawn) [1180-420, (3-Chlorophenyl)(1-((4-methoxyphenoxy)methyl)-3,4-dihydropyrrolo[1,2-a]pyrazin-2(1H)-yl)methanone] | 110 | 90 | 74 | 79 | 101 | 93 | 75 | 86 | 113 | 71 | 99 | 98 | 7 | 1413 | 1315 | 66 | 4 | 8 | 66 | 2 | EC50 ([1]; read-out: GluN2C EC50): 1900 nM; GluN2C Max % ([2]; maximal response, current without potentiator = 100%): 312%; half-life [15]: > 60 min; Tmax ([15]; Brain IP 10 mg/kg fed): 18 min; Cmax [15, 16]: 3500 nM; Cmax [15, 17]: 1410 ng/g; AUC(0-inf) ([15]; Plasma IP 10 mg/kg fed): 856 ng·h/mL; AUC(0-t) ([15]; Plasma IP 10 mg/kg fed): 792 ng·h/mL; Tmax ([15]; Plasma IP 10 mg/kg fed): 18 min; Cmax [15, 18]: 2100 nM; Cmax [15, 19]: 841 ng/mL |
